# Measured values: patent publication US20150050220A1, “ANTIMICROBIAL COMPOSITION” (Rohm and Haas Company, priority 2011, published 2015)
# Experiments:
# Type in all cases: cell-based
# [1] = test system: Escherichia coli (E. coli - ATCC #10536); experiment: Automated assessment of efficacy in surfactant base, OD readout after 15 seconds exposure (Example 3)
# Description: In these examples, the efficacy of combinations of thymol and p-menthene alcohols were tested in a surfactant cleansing formulation comprising 2.85% sodium cocoyl glycinate and 1.85% sodium lauroamphoacetate. This corresponds to a 50% in use dilution with water of a typical neat formulation containing 5.7% cocoyl glycinate and 3.7% % sodium lauroamphoacetate during hand washing. Solutions were prepared such that the concentrations of the surfactant components and test actives were 1.1 times the final desired concentration in order to allow for dilution with the bacterial inoculum in the test. The solutions were manually adjusted to pH 10.0 by dropwise addition of sodium hydroxide solution, as measured with a pH meter at ambient temperature. […]
# The efficacy of the combinations of the present invention was determined against the same bacterium as in Example 1, Escherichia coli (E. coli—ATCC #10536), at a concentration of approximately 1×10^8 bacteria per mL.
# Tests were conducted using standard microtiter plate assays using an automated liquid handling system. […] After 5 minutes in the DIE quench, the optical density (OD) was measured for each plate in turn at two specific wavelengths (450 nm and 590 nm). […] Delta OD values were calculated by subtracting […] at time=16 hours. […]
# [2] = test system: Escherichia coli (10536 strain); experiment: Assessment of antimicrobial efficacy and synergy: 15 seconds contact suspension kill test (Example 1); settings: for MBC (minimum biocidal concentration): lowest concentration giving complete kill of E. coli, 15 seconds contact, component alone
# [3] = test system: Escherichia coli (E. coli - ATCC #10536); experiment: High resolution MBC microtiter plate synergy assay in phosphate buffer containing 35% dipropylene glycol (Example 2); settings: for MBC of component alone (MBCA, MBCB): complete kill in 15 seconds, phosphate buffer with 35% DPG, E. coli 10536; for ΣFBC: component alone
# Description: The materials were sourced in the same way as for Example 1. Synergy tests were conducted using standard microtiter plate assays with phosphate buffer containing 35% dipropylene glycol (DPG). […] The MBC plate was inoculated one column at a time with the test microorganism. An aliquot of the inoculated well was transferred at 15 seconds to a plate containing a neutralizing agent (D/E Neutralizing Broth), mixed and held for 5 minutes before being transferred to a growth plate containing trypticase soy broth (TSB). The TSB plate was incubated at 37° C. and read for the presence/absence of growth at 24 hours. […] This microorganism is representative of natural contaminants in many consumer and industrial applications.
Structure (SMILES),"15 second bactericidal efficacy in combination with thymol (in words) ([1]; in combination with thymol at concentrations lower than their MBC, same surfactant formulation, all 4 or 6 replicates)",MBC (minimum biocidal concentration) [2] [% w/v],"MBC of p-menthene alcohol ([2]; value used to calculate FBC, for piperitols a lower boundary)","MBC of component alone (MBCA, MBCB) [3] [weight %]",ΣFBC [3],"Cb (end-point of second component in the mixture) ([3]; with Ca 0.08 of thymol, ratio A to B 1 to 2.5) [weight %]","Cb (end-point of second component in the mixture) ([3]; with Ca 0.2 of thymol, ratio A to B 1 to 0.13) [weight %]","Cb (end-point of second component in the mixture) ([3]; with Ca 0.2 of thymol, ratio A to B 1 to 0.25) [weight %]","Cb (end-point of second component in the mixture) ([3]; with Ca 0.2 of thymol, ratio A to B 1 to 0.38) [weight %]","Cb (end-point of second component in the mixture) ([3]; with Ca 0.2 of thymol, ratio A to B 1 to 0.5) [weight %]",MBC (minimum biocidal concentration) ([1]; in 2.85% sodium cocoyl glycinate + 1.85% sodium lauroamphoacetate solution at pH 10) [% w/v],"thymol concentration required for complete bacterial kill in combination ([2]; in combination with […](w/v) of 2-(4-methylcyclohex-3-enyl)-propan-1-ol, 4-fold reduction) [%]",MBC of thymol ([2]; value used to calculate FBC),"Ca (end-point of thymol in the mixture) ([3]; with Cb 0.025 of 2-(4-methylcyclohex-3-enyl)-propan-1-ol, ratio A to B 1 to 0.13) [weight %]","Ca (end-point of thymol in the mixture) ([3]; with Cb 0.05, ratio A to B 1 to 0.25) [weight %]","Ca (end-point of thymol in the mixture) ([3]; with Cb 0.075, ratio A to B 1 to 0.38) [weight %]","Ca (end-point of thymol in the mixture) ([3]; with Cb 0.1, ratio A to B 1 to 0.5) [weight %]","Ca (end-point of thymol in the mixture) ([3]; with Cb 0.2, ratio A to B 1 to 2.5) [weight %]"
"CC1=CCC(C(C)CO)CC1 (stereo not drawn) [2-(4-methylcyclohex-3-enyl)-propan-1-ol, 2-(4-methylcyclohex-3-enyl)propan-1-ol]",complete kill,0.15,0.15 % (w/v),0.3,1.00,0.2,0.025,0.05,0.075,0.1,,,,,,,,
"CC1=CCC(C(C)(C)O)CC1 (stereo not drawn) [alpha-terpineol, reference compound]",,0.4,,,,,,,,,,,,,,,,
"Cc1ccc(C(C)C)c(O)c1 [thymol, 2-isopropyl-5-methylphenol, reference compound]",,,,0.3,1.00,,,,,,>0.2,0.0125,0.025 % (w/v),0.2,0.2,0.2,0.2,0.08
